From article PMC5063977 (The Journal of Biological Chemistry, 2016)

Legend:
Type in all cases: cell-based
[1] = target: T1, RAMP1-CLR (CGRP receptor) (Homo sapiens, UniProt O60894+Q16602); assay: S. cerevisiae growth assay, GPA1/Gαs chimera, RAMP1 + CLR; conditions: percentage of yeast strain MMY11 (lacking GPA1); 20 h; mean ± S.E., n = 6
T1 construct: FLAG; expressed in transfected cells; host or cells: HEK-293 or HEK-293S cells, transient transfection, 1:1 RAMP:CLR
Method: (§1) FIGURE 1. […] Reporter gene activity was determined following 20 h of stimulation with each ligand. Data are expressed as a percentage of the maximum response observed in yeast strain MMY11 (lacking GPA1) and are means ± S.E. of n individual data sets. […] Data were determined as statistically different from the cognate ligand for each receptor (*, p < 0.05; **, p < 0.01; ***, p < 0.001) using a one-way ANOVA with Bonferroni's post-test.
(§2) General yeast procedures were performed as described previously ([22], [24]). The human CLR was introduced into yeast cells under the control of the PGK promoter using a plasmid containing ura3 (pDT-PGK). […] Receptor signaling was measured using the yeast growth assay as described previously ([24]). […] A fluorescein signal was detected as an increase in fluorescence (excitation wavelength = 485 nm, emission wavelength = 535 nm) as a measure of growth. Different concentrations of ligand (0.01 nM–100 μM) were assayed using 96-well plates, and fluorescence was detected using a Tecan Infinite M200 microplate reader (Tecan Ultra Evolution, Reading, UK) or a Mithras LB 940 microplate reader (Berthold Technologies, Harpenden, UK) for 20 h.
(§3) Data analysis for cAMP assays was performed in GraphPad Prism 6.0f (San Diego, CA). […] To quantitate the ligand-dependent response in the yeast system, a strain lacking GPA1 (MMY11), grown in rich medium, was used as a standard ([72]). […]

[2] = target: T1, RAMP1-CLR (CGRP receptor); assay: S. cerevisiae growth assay, GPA1/Gαi chimera, RAMP1 + CLR; conditions: percentage of yeast strain MMY11 (lacking GPA1); 20 h; mean ± S.E., n = 6
Method: FIGURE 3. […] Reporter gene activity was determined following 20 h of stimulation.
General yeast procedures were performed as described previously ([22], [24]). The human CLR was introduced into yeast cells under the control of the PGK promoter using a plasmid containing ura3 (pDT-PGK). The three human RAMPs were introduced into yeast under the control of the GAPDH promoter using plasmids containing leu2 (p425-GPD) ([25]). S. cerevisiae dual reporter strains expressing chimeras of yeast GPA1(1–467) (GPA1/Gα) with the five C-terminal amino acids of […] human G proteins representing Gαs, Gα16, Gαq, Gαo, Gαi1/2, Gαi3, Gαz, Gα12, Gα13, and Gα14 (MMY84–MMY93) were used in this study ([52]). […] Receptor signaling was measured using the yeast growth assay as described previously ([24]). […] A fluorescein signal was detected as an increase in fluorescence (excitation wavelength = 485 nm, emission wavelength = 535 nm) as a measure of growth. Different concentrations of ligand (0.01 nM–100 μM) were assayed using 96-well plates, and fluorescence was detected using a Tecan Infinite M200 microplate reader (Tecan Ultra Evolution, Reading, UK) or a Mithras LB 940 microplate reader (Berthold Technologies, Harpenden, UK) for 20 h. […]

[3] = target: T1, RAMP1-CLR (CGRP receptor); assay: (Ca^2+)i mobilization, HEK-293 cells, RAMP1 + CLR; conditions: HEK293, percentage of maximal (Ca^2+)i release with 10 μM ionomycin, mean ± S.E., n = 5
Method: (§4) HEK-293 cells were transfected with FuGENE 6 (Roche Applied Science) in accordance with the manufacturer's instructions using a 1:3 (w:v) DNA:FuGENE ratio and a 1:1 ratio of RAMP to CLR. […] The transfected cell lines were grown for 24–48 h prior to assaying.
(§5) Transfected HEK-293 cells were grown to confluence in black, clear bottomed, 96-well plates. […] Cells were then washed followed by the addition of 100 μl of Ca^2+-free Hanks' balanced salt solution. […] Recordings were obtained every 0.5 s for 120 s. Peak magnitude was calculated using five-point smoothing followed by correction against background fluorescence. The peak was used to generate concentration-response curves and normalized relative to 10 μM ionomycin.
(§6) Data analysis for cAMP assays was performed in GraphPad Prism 6.0f (San Diego, CA). […] These values were then used to quantify signaling bias as change in log (τ/Ka) relative to the natural cognate ligand for the respective receptor ([41]). […] Statistical differences were analyzed using one-way ANOVA or Student's t test as appropriate with post hoc Bonferroni's or Dunnett's multiple comparisons, and p < 0.05 was considered significant. […] To quantitate the ligand-dependent response in the yeast system, a strain lacking GPA1 (MMY11), grown in rich medium, was used as a standard ([72]). […]

[4] = target: T1, RAMP1-CLR (CGRP receptor); assay: (Ca^2+)i mobilization, HEK-293S cells, RAMP1 + CLR; conditions: HEK293S, percentage of maximal (Ca^2+)i release with 10 μM ionomycin, mean ± S.E., n = 5
Method: as §4, §5, §6

RAMP2-CLR (AM1 receptor) = target: T2, RAMP2-CLR (AM1 receptor) (Homo sapiens, UniProt O60895+Q16602); assay: S. cerevisiae growth assay, GPA1/Gαs chimera, RAMP2 + CLR; conditions: percentage of yeast strain MMY11 (lacking GPA1); 20 h; mean ± S.E., n = 7
T2 construct: FLAG; expressed in transfected cells; host or cells: HEK-293 or HEK-293S cells, transient transfection, 1:1 RAMP:CLR
T2 sequence (Q16602 23-461): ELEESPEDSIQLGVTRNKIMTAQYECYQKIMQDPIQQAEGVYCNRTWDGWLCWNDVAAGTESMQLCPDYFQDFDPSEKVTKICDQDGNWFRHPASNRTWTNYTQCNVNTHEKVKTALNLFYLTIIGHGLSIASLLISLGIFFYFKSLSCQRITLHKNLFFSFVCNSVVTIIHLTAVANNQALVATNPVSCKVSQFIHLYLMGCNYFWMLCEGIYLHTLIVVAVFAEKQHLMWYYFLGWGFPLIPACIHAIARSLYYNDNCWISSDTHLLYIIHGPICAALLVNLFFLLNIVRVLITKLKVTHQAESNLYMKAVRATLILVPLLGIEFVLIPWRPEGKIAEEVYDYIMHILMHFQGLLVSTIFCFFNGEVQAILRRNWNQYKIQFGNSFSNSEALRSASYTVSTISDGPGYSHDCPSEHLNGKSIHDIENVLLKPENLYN
T2 sequence (O60895 43-175): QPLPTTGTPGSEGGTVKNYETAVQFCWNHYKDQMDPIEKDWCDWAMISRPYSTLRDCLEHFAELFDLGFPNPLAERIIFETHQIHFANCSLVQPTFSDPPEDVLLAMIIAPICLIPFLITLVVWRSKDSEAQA
Method: as §1, §2, §3

T1 sequence (Q16602 23-461): as the sequence (Q16602 23-461) above
T1 sequence (O60894 27-148): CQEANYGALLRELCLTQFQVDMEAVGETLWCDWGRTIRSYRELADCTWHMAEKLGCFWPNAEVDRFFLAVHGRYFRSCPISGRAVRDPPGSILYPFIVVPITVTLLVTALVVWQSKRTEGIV

Emax [1] | Emax [2] | Emax [3] | Emax [4] | Emax (RAMP2-CLR (AM1 receptor)) | SMILES
20.4 ± 2.8% | 34.2 ± 3.7% | 37 ± 3.5% | 38.2 ± 3.8% | – | CC[C@H](C)[C@H](NC(=O)[C@H](CCC(N)=O)NC(=O)[C@H](Cc1c[nH]cn1)NC(=O)[C@H](C)NC(=O)[C@H](CC(C)C)NC(=O)[C@H](CCCCN)NC(=O)[C@H](CCC(N)=O)NC(=O)[C@@H](NC(=O)[C@@H](NC(=O)[C@@H]1CSSC[C@H](NC(=O)CNC(=O)[C@H](Cc2ccccc2)NC(=O)[C@H](CO)NC(=O)[C@H](CCCNC(=N)N)NC(=O)[C@H](CC(C)C)NC(=O)CNC(=O)[C@H](CCC(N)=O)NC(=O)[C@H](Cc2ccccc2)NC(=O)[C@H](CC(N)=O)NC(=O)[C@H](CC(N)=O)NC(=O)[C@H](CCSC)NC(=O)[C@H](CO)NC(=O)[C@H](CCC(N)=O)NC(=O)[C@H](CCCNC(=N)N)NC(=O)[C@@H](N)Cc2ccc(O)cc2)C(=O)N[C@@H](CCCNC(=N)N)C(=O)N[C@@H](Cc2ccccc2)C(=O)NCC(=O)N[C@@H]([C@@H](C)O)C(=O)N1)[C@@H](C)O)C(C)C)C(=O)N[C@@H](Cc1ccc(O)cc1)C(=O)N[C@@H](CCC(N)=O)C(=O)N[C@@H](Cc1ccccc1)C(=O)N[C@H](C(=O)N[C@@H](CC(=O)O)C(=O)N[C@@H](CCCCN)C(=O)N[C@@H](CC(=O)O)C(=O)N[C@@H](CCCCN)C(=O)N[C@@H](CC(=O)O)C(=O)N[C@@H](CC(N)=O)C(=O)N[C@H](C(=O)N[C@@H](C)C(=O)N1CCC[C@H]1C(=O)N[C@@H](CCCNC(=N)N)C(=O)N[C@@H](CO)C(=O)N[C@@H](CCCCN)C(=O)N[C@H](C(=O)N[C@@H](CO)C(=O)N1CCC[C@H]1C(=O)N[C@@H](CCC(N)=O)C(=O)NCC(=O)N[C@@H](Cc1ccc(O)cc1)C(N)=O)[C@@H](C)CC)C(C)C)[C@@H](C)O [AM, adrenomedullin]
– | 41.5 ± 3.3% | – | – | 19.9 ± 2.5% | CSCC[C@H](NC(=O)[C@H](CC(C)C)NC(=O)[C@H](CCC(N)=O)NC(=O)[C@H](Cc1c[nH]c2ccccc12)NC(=O)[C@H](CC(C)C)NC(=O)[C@H](CCCNC(=N)N)NC(=O)[C@H](Cc1c[nH]cn1)NC(=O)[C@H](CO)NC(=O)[C@H](CC(C)C)NC(=O)[C@H](CC(N)=O)NC(=O)[C@H](CCC(N)=O)NC(=O)[C@@H](NC(=O)[C@H](CCC(N)=O)NC(=O)[C@@H]1CSSC[C@H](NC(=O)CNC(=O)[C@@H](NC(=O)[C@H](CCCNC(=N)N)NC(=O)[C@H](CC(C)C)NC(=O)[C@H](CC(C)C)NC(=O)[C@H](CCC(N)=O)NC(=O)[C@H](C)NC(=O)[C@H](CCC(N)=O)NC(=O)[C@@H](N)[C@@H](C)O)C(C)C)C(=O)N[C@@H](C(C)C)C(=O)N[C@@H](CC(C)C)C(=O)NCC(=O)N[C@@H]([C@@H](C)O)C(=O)N1)C(C)C)C(=O)NCC(=O)N1CCC[C@H]1C(=O)N[C@@H](C)C(=O)NCC(=O)N[C@@H](CCCNC(=N)N)C(=O)N[C@@H](CCC(N)=O)C(=O)N[C@@H](CC(=O)O)C(=O)N[C@@H](CO)C(=O)N[C@@H](C)C(=O)N1CCC[C@H]1C(=O)N[C@H](C(=O)N[C@@H](CC(=O)O)C(=O)N1CCC[C@H]1C(=O)N[C@@H](CO)C(=O)N[C@@H](CO)C(=O)N1CCC[C@H]1C(=O)N[C@@H](Cc1c[nH]cn1)C(=O)N[C@@H](CO)C(=O)N[C@@H](Cc1ccc(O)cc1)C(N)=O)C(C)C [AM2, adrenomedullin 2]
